According to article PMC11483813, “Bombesin-Targeted Delivery of β-Carboline-Based Ir(III) and Ru(II) Photosensitizers for a Selective Photodynamic Therapy of Prostate Cancer” (Inorganic Chemistry, 2024):

How the values were obtained:
A549 lung cancer cells = format: cell-based, human; conditions: A549; 4 h incubation, kept in the dark 1 h; MTT after 48 h; read-out: IC50 A549 Dark
Procedure: (§1) The effect of Ir-H, Ir-Me, Ru-H, and Ru-Me on cell viability was evaluated in the A549 lung cancer and PC-3 prostate cancer cell lines by MTT assays. PC-3 cells were specifically chosen due to their high expression levels of GRPR on their surface, allowing for further evaluation of the activity of the BN3-derived metallopeptides Ir-BN and Ru-BN.[38],[51] In contrast, A549 cells express low levels of GRPR.[52] MRC-5 fibroblasts were used as a nonmalignant cell model.[53]Table 3 reports the half maximal inhibitory concentration (IC50) values obtained after treating the cells either under dark conditions or upon exposure to blue light at a dose of 24.1 J cm^–2. The photocytotoxicity index (PI), defined as the IC50,dark/IC50,light, is provided for each compound.
(§2) Stock solutions of the complexes and metallopeptides were initially prepared at a concentration of 5 mM in DMSO and then diluted in sterile distilled water to achieve a final concentration of 1 mM, with a resulting DMSO concentration of 20% v/v. Cells were seeded into 96-well plates at a density of 2500 cells/well for A549, 3500 cells/well for PC-3, and 5500 cells/well for MRC-5. Following 24 h of incubation for attachment, cells were treated in triplicate with freshly prepared working solutions of the compounds in the culture medium at concentrations ranging from 0.001 to 100 μM. The maximum DMSO concentration in the working solutions was 2% (v/v). The working concentrations for each compound were adjusted based on their cytotoxicity. Following a 4 h incubation period to allow internalization of the compounds into the cells, the plates were kept in dark conditions or exposed to blue (460 nm) or red (655 nm) light for 1 h using an LED system (LuxLight), providing a total dose of 24.1 J cm^–2. All plates were incubated in the dark for an additional 43 h. Cells were then washed with phosphate-buffered saline (PBS), and 100 μL of fresh culture medium containing 10% of 3-[4,5-dimethylthiazol-2-yl]-2,5 diphenyl tetrazolium bromide (MTT) solution (0.5 mg/mL) (Sigma- Aldrich) was added to each well. After a 2 h incubation period, the formazan crystals were dissolved in DMSO, and the absorbance was measured at 570 nm using a Multiscan Plate Reader (Synergy 4, Biotek, Winooski, USA). The concentration causing a 50% reduction in cell viability (IC50) was determined for each compound with the Gen5 software (BioTek). At least three independent experiments were conducted for each compound.

MRC-5 fibroblasts = format: cell-based, human; conditions: MRC-5; 4 h incubation, kept in the dark 1 h; MTT after 48 h; read-out: IC50 MRC-5 Dark
Procedure: as §1, §2

[1] = test system: PC-3 prostate cancer cells; format: cell-based, human; conditions: PC-3; 4 h incubation, kept in the dark 1 h; MTT after 48 h; read-out: IC50 PC-3 Dark
Procedure: as §1, §2

[2] = parameters: method as in earlier work; conditions: standard reference; H2O:DMSO (55:45); ref 6 (SI); cited from earlier work

SMILES | IC50 (A549 lung cancer cells) | IC50 (MRC-5 fibroblasts) | IC50 [1] | singlet oxygen quantum yield (ΦΔ) [2]
N.N.[Cl][Pt][Cl] [Cisplatin, reference compound] | 5.99 ± 1.2 µM | 5.34 ± 0.38 µM | 5.55 ± 0.97 µM | –
O=C([O-])c1c(Cl)c(Cl)c(Cl)c(Cl)c1-c1c2cc(I)c(=O)c(I)c-2oc2c(I)c([O-])c(I)cc12.[Na+].[Na+] [rose bengal] | – | – | – | 0.75
